According to paper PMC2118091 (The Journal of Experimental Medicine, 2006):
Each block holds one substance with its values, some of them ahead of it.

Legend:
IgM CM-22 [1] = experiment: SPR analysis of peptide binding to IgM CM-22; parameters: species or system mouse
[2] = system: IgM, complement C4 and C3; experiment: Immunohistology of IgM, C4 and C3 deposition after intestinal RI in WT mice; type: in vivo, mouse; settings: RI-treated WT mice given P8 peptide; unpublished data
IgM CM-22 [3] = experiment: Titration of P8 peptide with IgM CM-22; parameters: species or system mouse; settings: 200 μg IgM CM-22 (0.1–0.2 μM); unpublished data
WT mice = experiment: Intestinal RI model in WT mice, pathology score; type: in vivo, mouse; settings: final serum concentration, i.v. 5 min before reperfusion
complement C3 = settings: pretreatment of rats, myocardial infarction model; cited from earlier work

binding to IgM CM-22 surface (IgM CM-22 [1]; SPR, PBS, 25°C, control peptide injected at 117 μM): no binding
Substance: AGCMPYVRIPTA [control peptide, reference compound]

Substance: NGNNVNGNRNNN [P8 peptide]
CM-22 binding affinity relative to N2 (IgM CM-22 [1]; comparison in words, no KD printed for P8): higher CM-22 binding affinity relative to N2 | IgM, C4 and C3 deposition within microvilli [2]: colocalized within microvilli of RI-treated WT mice but not in mice administered P8 peptide | optimal peptide concentration sufficient to block IgM CM-22 (IgM CM-22 [3]): ~10 µM | protective concentration in intestinal RI (WT mice): 10 µM

Substance: sCR1: specific soluble inhibitor of complement C3 (sCR1)
myocardial injury (complement C3): dramatically reduced injury
